Assay results reported in publication PMC6353801, “Enhanced Anti-diabetic Effect of Berberine Combined With Timosaponin B2 in Goto-Kakizaki Rats, Associated With Increased Variety and Exposure of Effective Substances Through Intestinal Absorption” (Frontiers in Pharmacology, 2019).

What was measured:
primary rat hepatocytes = assay: Hepatic metabolism in primary hepatocytes; conditions: 3 h
[1] = usually in various species; ref Liu et al., 2016; cited from earlier work
GK rats = assay: Oral glucose tolerance test (OGTT) in GK rats on day 28; type: in vivo, rat; conditions: after 4 weeks of treatment, glucose 2 g/kg oral
Protocol: (§1) Four-week-old male GK rats were fed a high-fat diet, and age-matched non-diabetic Wistar rats were fed standard chow as the control group. Under these dietary conditions, blood glucose was estimated each week for 7 weeks in 12-h fasted rats using a portable glucometer (One Touch Sure Step Meter, Johnson & Johnson, United States) by drawing the blood from the tail vein. GK rats with fasting blood glucose levels (FBG) above 16.7 mM were considered as diabetic rats, and only uniformly diabetic rats were used in this study. […] All the drugs were suspended in 0.5% carboxymethylcellulose sodium (CMC-Na) solution for oral gavage (10 ml/kg) once per day (at 9:00) for 6 weeks. Simultaneously, the Wistar and vehicle groups received vehicle over the treatment period. Food consumption and body weight were measured every week throughout the experimental periods. Non-fasting blood glucose (NFBG) levels were determined by collecting blood samples from the tail vein (at 9:00), and FBG levels were determined after a 6-h fast (at 15:00) on days 0, 7, 14, 21, and 42. On day 28, an oral glucose tolerance test (OGTT) was performed after an overnight fast. […] On day 42, the rats were anesthetized with urethane (1.4 g/kg, dissolved in saline) after an overnight fast and were sacrificed to collect the liver, kidney, heart, and spleen. The organs were weighed after washing with saline and drying to calculate the organ coefficient, namely, the ratio between the weight of organs and the body in each rat.

[2] = Body weight, food intake, organ coefficients and side effects in GK rats; type: in vivo, rat
Protocol: as §1

[3] = Transport in Caco-2 cells; type: in vitro ADME, human; conditions: human
Protocol: The culture medium was changed every other day for the first 7 days and then daily for the next 14 days. […] Prior to the transport experiments, the cell monolayers were washed three times with HBSS at 37°C. […] At the same time, the corresponding opposite side was filled with medium as the receiving chamber. After incubation for 30, 60, 90, and 120 min, 250-μl aliquots of the medium was taken from the receiving chamber at each time point, and prepared for analysis by HPLC–MS/MS. […] where (ΔQ/Δt) is the linear slope of the drug concentration in the receptor chamber over time, A represents the surface area of the membrane (1.12 cm^2), and C0 is the initial concentration of drug in the donor chamber. The efflux ratio (ERpermeability) for BL to AP and AP to BL transport was defined by the following equation: […] where Papp (BL–AP) and Papp (AP–BL) are the apparent permeability of drugs from the basolateral (BL) to apical (AP) and AP to BL sides of the monolayer, respectively.

[4] = Caco-2, no inhibitor, digoxin 10 μM, TB-2 5 μM, BBR 10 μM, n = 3

Compound: COc1ccc2cc3[n+](cc2c1OC)CCc1cc2c(cc1-3)OCO2 [BBR, berberine]
- share of compound disappearing after incubation (primary rat hepatocytes; BBR 1 μM, 37°C): approximately 80%
- effect on TB-2 levels after incubation (primary rat hepatocytes; TB-2 1 μM, BBR (5 μM, 30 μM)): no improvement
- bioavailability [1]: < 1%
- decrease in the AUC of blood glucose in OGTT vs vehicle (GK rats): didn’t significantly decrease
- decrease of blood glucose levels in OGTT at 30 min vs vehicle (GK rats): 24%
- effect on body weight or food consumption vs vehicle ([2]; 6-week oral treatment): no effect
- effect on organ coefficients (liver and kidney) vs vehicle ([2]; day 42): limited
- efflux ratio at 120 min ([3]; Caco-2, Caco-2, no inhibitor, Papp (BL−AP)/Papp (AP−BL), read-out: ERpermeability (efflux ratio)): 71.4
- Papp A→B at 120 min [3, 4]: 0.038 ± 0.011 ×10⁻⁶ cm/s
- Papp B→A at 120 min [3, 4]: 2.71 ± 0.355 ×10⁻⁶ cm/s
